Experiment [1] has as its system rats with chronic cerebral ischemia induced by chronic bilateral ligation of common carotid arteries. To be noted: for Latency, s Post-shock / Latency, s Pre-shock: test on day 8 since ligation, mean±SD, n=8; for Latency, s Post-shock: 24 hours after the shock. The method, then: The effect of the compound of the formula (I) on cognitive function was assessed in rats with chronic cerebral ischemia induced by chronic bilateral ligation of common carotid arteries. The ligation was made in Wistar male rats 3 hours prior the first injection of the compound of the formula (I) or saline. Rats were injected i.p. with 1 mg/kg or 50 mg/kg the compound of the formula (I) or saline (control) for 7 days singly a day. Passive avoidance step-through paradigm test (short-term learning) was made on day 8th since the ligation. The pre-shock and post-shock latency time was used as an index of cognitive impairments. […] Data are presented in table 1 as the latency time mean±SD (n=8).

Experiment [2] deals with rats with cognitive impairments induced by amyloid injection (A-beta 25-35 in nucleus basalis magnocellularis). The note with it: for Number of visits Repeated (to the same arm) / Number of visits Total (visited arms): Y-maze 5 min, next day after last injection, mean±SD, n=8. The method, then:
Beta-amyloid 25-35 (A-beta 25-35) was injected in nucleus basalis magnocellularis (NBM) of rats to induce model of cognitive impairments relevant to human Alzheimer's disease as described. Harkany T et al., Behav Brain Res. 1998 90(2):133-45. Harkany T et al., Prog Neuropsychopharmacol Biol Psychiatry. 1999 23(6):963-1008.
A-beta 25-35 was administered bilaterally into NBM of male Wistar rats in dose of 2 μg per each side. Since 16th day of A-beta 25-35 injection, rats were injected i.p. with 1 mg/kg or 50 mg/kg the compound of the formula (I) or saline (control) for 7 days singly a day. The effect of the compound of the formula (I) on cognitive functions was tested in a model of spontaneous alteration in Y-maze at next day from the day of the last injection. It is a suitable model for assessing memory impairments. Total number of visited arms and number of repeated visits to the same arm for 5 min was counted. […] Data are presented in table 2 as the number of visits mean±SD (n=8).

[3] abbreviates: 1 mg/kg i.p. once a day for 7 days.
The mark [4] stands for this setting: 50 mg/kg i.p. once a day for 7 days.
Setting [5] is: 1 mg/kg i.p. once a day for 7 days from day 16 after A-beta 25-35.
[6] abbreviates: 50 mg/kg i.p. once a day for 7 days from day 16 after A-beta 25-35.

Structures are written as SMILES. Where two headings read alike, the source gives them in different places.

Take `C[N+](C)(C)CCO.C[N+](C)(C)CCO.O=C([O-])CCC(=O)[O-]` [Compound of the formula (I), bis[2-hydroxyethyl-N,N,N-trimethylaminium]butanedioate]: in experiment [1] (setting [3]), the “Latency, s Post-shock” value worked out at 99.3 ± 24.5 s and the “Latency, s Pre-shock” value came to 13.5 ± 4.3 s. Also, in experiment [1] (setting [4]), the “Latency, s Post-shock” value is reported as 53.3 ± 16.3 s and the “Latency, s Pre-shock” value stood at 27.7 ± 13.1 s. Moreover, the “Effect on cognitive function as compared to the control” value in experiment [1] (cognitive impairments induced by chronic cerebral ischemia, vs saline control) is recorded as “significantly enhanced cognitive function”. Besides, in experiment [2] (setting [5]), the “Number of visits Repeated (to the same arm)” value amounted to 0.65 ± 0.24 and the “Number of visits Total (visited arms)” value is 3.00 ± 0.41. Besides, in experiment [2] (setting [6]), the “Number of visits Repeated (to the same arm)” value is on record as 0.75 ± 0.29 and the “Number of visits Total (visited arms)” value is given as 2.55 ± 0.33. Also, in experiment [2] (cognitive function impaired by amyloid toxicity, vs saline control), the “Effect on cognitive function (memory) as compared to the control” value is “significantly enhanced cognitive function (memory)”.

The record behind these values is patent US20060199862A1, “Method for enhancing cognitive function” (priority 2005, published 2006).
